In US20030207812A1, “Cd45 inhibitors” (priority 2002, published 2003):
Like-named read-outs stand apart in the source and are kept apart here. Where a SMILES comes first, the peptide text is derived from it. The star is where a group is joined. 3Phenanthroyl(9,10-dioxo) = O=C1C(=O)c2ccc(C(=O)*)cc2-c2ccccc21; X1 = O=C1C(=O)c2cc(N*)ccc2-c2ccccc21

How the values were obtained:
T cells (PBMC) = test: cells; format: cell-based, human; conditions: read-out: T cell prolif. IC50
Procedure: Cell isolation and T cell proliferation assay:
Whole blood was obtained from healthy human blood donors. Peripheral blood mononuclear cells (“PBMC”) were isolated using Lymphoprep density-gradient centrifugation (Nycomed Amersham, Oslo, Norway), washed, counted and resuspended at 2×10^6 cells/mL in RPMI 1640 medium containing glutamine, 0.1 mg/mL gentamycin and 10% heat inactivated human serum. PBMC were transferred to 96-well plates (2×10^5 cells/well) containing compound or vehicle control, with the final concentration of DMSO not to exceed 0.3%, and incubated for 1 hour before addition of the activating anti-CD3 antibody, OKT3 (30ng/mL). After 24 hours in culture, the cells were pulsed with [^3H]thymidine (1 μCi/well) overnight and harvested the next day onto 96-well Packard GF/C filter plates using a Packard Cell Harvester (Packard Instruments, Meriden, Conn.). The filter plate was dried, the bottom of the plate sealed, 25 μL of Microscint 20 scintillation fluid added to each well, the top of the plate sealed with TopSeal-A, and the plate counted on a Packard TopCount. The data from the TopCount is transferred into Excel 5 (Microsoft, Redmond, Wash.) and formatted for EC50 determination using Prism software (GraphPad Software, San Diego, Calif.).

CD45 [1] = molecular target: T1, CD45 (Homo sapiens, UniProt P08575); test: Phosphatase assay using pNPP as substrate; format: biochemical
T1 construct: incubating the cytosolic portion of CD45 with the compounds and p-nitrophenyl phosphate (pNPP); purchased BIOMOL (Plymouth Meeting, Pa.)
T1 sequence (P08575 599-1306 limits assumed): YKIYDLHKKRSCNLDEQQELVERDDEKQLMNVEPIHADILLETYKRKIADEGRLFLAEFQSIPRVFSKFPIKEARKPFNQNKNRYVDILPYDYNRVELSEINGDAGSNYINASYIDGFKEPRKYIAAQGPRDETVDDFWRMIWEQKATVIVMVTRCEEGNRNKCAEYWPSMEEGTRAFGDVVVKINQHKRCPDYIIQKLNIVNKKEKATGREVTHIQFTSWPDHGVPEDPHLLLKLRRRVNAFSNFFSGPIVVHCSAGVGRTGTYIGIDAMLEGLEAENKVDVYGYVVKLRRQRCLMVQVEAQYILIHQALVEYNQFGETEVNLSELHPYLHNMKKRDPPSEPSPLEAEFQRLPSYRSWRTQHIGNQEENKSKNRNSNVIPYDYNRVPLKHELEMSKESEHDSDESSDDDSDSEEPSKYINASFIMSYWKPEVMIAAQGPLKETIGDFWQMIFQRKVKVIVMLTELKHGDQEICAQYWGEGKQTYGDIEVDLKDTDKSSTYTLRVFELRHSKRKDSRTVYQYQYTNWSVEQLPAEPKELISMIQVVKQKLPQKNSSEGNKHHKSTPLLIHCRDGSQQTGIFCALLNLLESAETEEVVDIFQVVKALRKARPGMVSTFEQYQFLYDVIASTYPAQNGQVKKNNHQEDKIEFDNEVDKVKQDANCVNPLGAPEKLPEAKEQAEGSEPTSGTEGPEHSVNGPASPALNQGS
Procedure: Phosphatase assay using pNPP as substrate:
CD45 enzyme was obtained from BIOMOL (Plymouth Meeting, Pa.). Phosphatase activity was assayed in a buffer containing final concentrations of 25 mM imidazole at pH 7.0, 50 mM NaCl, 2.5 mM ethylenediaminetetraacetic acid (“EDTA”), 5 mM dithiothreitol (“DTT”) and 10 μg/mL bovine serum albumin (“BSA”) using pNPP as a substrate.

[2] = Cytotoxicity assay (Calcein-AM uptake); conditions: human, PHA-expanded T-cell lymphoblasts from PBMC
CD45 [3] = molecular target: T1, CD45; test: Phosphatase assay using lck 10-mer as substrate; format: biochemical; conditions: CD45 phosphatase, lck carboxy-terminal peptide TEGQpYQPQP substrate, pH 7.2; read-out: Ick IC50
Procedure: Phosphatase assay using lck 10-mer as substrate:
Phosphatase activity was assayed in 96 well plates in a buffer containing final concentrations of 25 mM HEPES at pH 7.2, 5 mM DTT and 10 μg/mL BSA using the lck carboxy-terminal peptide TEGQpYQPQP as the substrate (Cho, H., Krishnaraj, R., Itoh, M., Kitas, E., Bannwarth, W., Saito, H., Walsh, C. T. 1993. Substrate specificities of catalytic fragments of protein tyrosine phosphatases (HPTPb, LAR, and CD45) toward the phosphotyrosylpeptide substrates and thiophosphotyrosylated peptides as inhibitors. Protein Science 2:977-984). Compounds were tested in a range from 30 to 0.01 μM in a final concentration of 5% DMSO. Enzyme was incubated with substrate with or without compound, at room temperature for 1.5 h. At the end of the incubation period, BIOMOL “Green Reagent” (BIOMOL, Plymouth Meeting, Pa.) was added to each well, the plates incubated at room temperature for 30 min and absorbance read at 620 nm.

[4] = human PBMC, OKT3 30 ng/mL, [3H]thymidine
[5] = CD45 phosphatase, pNPP substrate, pH 7.0, read-out: pNPP IC50

Compound | IC50 (T cells (PBMC); [4]) | IC50 (CD45 [1]; [5]) | CC50 [2] | IC50 (CD45 [3]) | IC50 (CD45 [1]) | IC50 (CD45 [1]; pH 7, read-out: pNPP IC50) | IC50 (T cells (PBMC); Homo sapiens)
O=C(Nc1ccc2c(c1)C(=O)C(=O)c1ccccc1-2)c1ccccc1F [Example 1, N-(9,10-Dioxo-9,10-dihydro-phenanthren-2-yl)-2-fluoro-benzamide] | 3.1 µM | 0.6 µM | 20 µM | 11 µM | – | – | –
O=C(COCc1ccccc1)Nc1ccc2c(c1)C(=O)C(=O)c1ccccc1-2 [Example 2, 2-Benzyloxy-N-(9,10-dioxo-9,10-dihydro-phenanthren-2-yl)-acetamide] | 1 µM | 0.5 µM | 14 µM | 11 µM | – | – | –
CCCC(=O)Nc1ccc2c(c1)C(=O)C(=O)c1ccccc1-2 [Example 3, N-(9,10-Dioxo-9,10-dihydro-phenanthren-2-yl)-butyramide] | 1.1 µM | 0.7 µM | 8.2 µM | 17 µM | – | – | –
CC(C)(C)C(=O)Nc1ccc2c(c1)C(=O)C(=O)c1ccccc1-2 [Example 4, N-(9,10-Dioxo-9,10-dihydro-phenanthren-2-yl)-2,2-dimethyl-propionamide] | – | 0.2 µM | 3.5 µM | 3.8 µM | – | – | –
O=C1C(=O)c2cc(NC(=O)c3ccccc3[N+](=O)[O-])ccc2-c2ccccc21 [Example 5, N-(9,10-Dioxo-9,10-dihydro-phenanthren-2-yl)-2-nitro-benzamide] | 1 µM | 0.3 µM | 8.2 µM | 12 µM | – | – | –
O=C1C(=O)c2ccc(NC(=O)c3ccccc3C(F)(F)F)cc2-c2ccccc21 [Example 13, N-(9,10-Dioxo-9,10-dihydro-phenanthren-3-yl)-2-trifluoromethyl-benzamide] | – | 1.1 µM | 14 µM | 5.8 µM | – | – | –
Cc1ccc(S(=O)(=O)N(c2ccc3c(c2)C(=O)C(=O)c2ccccc2-3)S(=O)(=O)c2ccc(C)cc2)cc1 [Example 14, N-(9,10-Dioxo-9,10-dihydro-phenanthren-2-yl)-4-methyl-N-[(4-methylphenyl)sulfonyl]-benzenesulfonamide] | – | 12.9 µM | 5.3 µM | > 30 µM | – | – | –
O=C1C(=O)c2cc(-c3cc4ccccc4o3)ccc2-c2ccccc21 [Example 16, 2-Benzofuran-2-yl-phenanthrene-9,10-dione] | – | 3.7 µM | 3.6 µM | – | – | – | –
O=C1C(=O)c2cc(-c3ccccc3F)ccc2-c2ccccc21 [Example 18, 2-(2-Fluoro-phenyl)-phenanthrene-9,10-dione] | – | 0.75 µM | 8.4 µM | – | – | – | –
COc1ccccc1-c1ccc2c(c1)C(=O)C(=O)c1ccccc1-2 [Example 20, 2-(2-Methoxy-phenyl)-phenanthrene-9,10-dione] | – | 0.99 µM | 8.9 µM | – | – | – | –
NC(=O)CC[C@H](NC(=O)c1ccc2c(c1)-c1ccccc1C(=O)C2=O)C(=O)N[C@@H](CCC(N)=O)C(=O)N1CCC[C@H]1C(=O)N[C@@H](CCC(=O)O)C(=O)NCC(=O)O [Example 34] ({3Phenanthroyl(9,10-dioxo)}-QQPEG-OH) | – | – | – | 1.9 µM | 0.9 µM | – | –
NC(=O)CC[C@H](NC(=O)[C@@H]1CCCN1C(=O)[C@H](CCC(=O)O)NC(=O)CNC(=O)c1ccc2c(c1)-c1ccccc1C(=O)C2=O)C(=O)NCC(=O)O [Example 38] ({3Phenanthroyl(9,10-dioxo)}-GEPQG-OH) | – | – | – | 2.2 µM | 0.7 µM | – | –
CC(=O)N[C@@H](C)C(=O)N[C@H](C(=O)N[C@@H](CCC(=O)O)C(=O)NCC(=O)N[C@@H](CCC(N)=O)C(=O)N[C@@H](CC(=O)Nc1ccc2c(c1)C(=O)C(=O)c1ccccc1-2)C(=O)O)[C@@H](C)O [Example 60] (Ac-ATEGQD(X1)-OH) | – | 2 µM | – | 7.9 µM | – | – | –
CC(=O)N[C@H](C(=O)N[C@@H](C)C(=O)N[C@H](C(=O)N[C@@H](CCC(=O)O)C(=O)NCC(=O)N[C@@H](CCC(N)=O)C(=O)N[C@@H](CC(=O)Nc1ccc2c(c1)C(=O)C(=O)c1ccccc1-2)C(=O)O)[C@@H](C)O)[C@@H](C)O [Example 61] (Ac-TATEGQD(X1)-OH) | – | – | – | – | – | 1.8 µM | –
CC(=O)N[C@@H](Cc1ccccc1)C(=O)N[C@H](C(=O)N[C@@H](C)C(=O)N[C@H](C(=O)N[C@@H](CCC(=O)O)C(=O)NCC(=O)N[C@@H](CCC(N)=O)C(=O)N[C@@H](CC(=O)Nc1ccc2c(c1)C(=O)C(=O)c1ccccc1-2)C(=O)O)[C@@H](C)O)[C@@H](C)O [Example 62] (Ac-FTATEGQD(X1)-OH) | – | – | – | – | – | 1.4 µM | –
COC(=O)CCCCCCC(=O)Nc1ccc2c(c1)C(=O)C(=O)c1ccccc1-2 [Example 71, 7-(9,10-Dioxo-9,10-dihydro-phenanthren-2-ylcarbamoyl)-heptanoic Acid Methyl Ester] | – | 0.5 µM | 14 µM | 3.7 µM | – | – | –
COC(=O)CCCCCCCCC(=O)Nc1ccc2c(c1)C(=O)C(=O)c1ccccc1-2 [Example 72, 9-(9,10-Dioxo-9,10-dihydro-phenanthren-2-ylcarbamoyl)-nonanoic Acid Methyl Ester] | – | > 30 µM | – | – | – | – | –
COC(=O)CCC(=O)Nc1ccc2c(c1)C(=O)C(=O)c1cc(NC(=O)CCC(=O)OC)ccc1-2 [Example 82, N-[7-(3-Methoxycarbonyl-propionylamino)-9,10-dioxo-9,10-dihydro-phenanthren-2-yl]-succinamic Acid Methyl Ester] | – | 0.5 µM | 7 µM | 2.9 µM | – | – | –
Nc1ccc2c(c1)C(=O)C(=O)c1ccccc1-2 [Example 87, 2-Amino-phenanthrene-9,10-dione] | – | 0.4 µM | 5 µM | 2.3 µM | – | – | –
Nc1ccc2c(c1)-c1ccccc1C(=O)C2=O [Example 88, 3-Amino-phenanthrene-9,10-dione] | – | 3.74 µM | 17 µM | 10.5 µM | – | – | –
COC(=O)CCC(=O)Nc1ccc2c(c1)-c1ccccc1C(=O)C2=O [Example 90, N-(9,10-Dioxo-9,10-dihydro-phenanthren-3-yl)-succinamic Acid Methyl Ester] | – | 0.4 µM | 18 µM | 3.2 µM | – | – | –
O=C1C(=O)c2cccc([N+](=O)[O-])c2-c2ccccc21 [Example 93, 4-Nitro-phenanthrene-9,10-dione] | – | 0.5 µM | 10 µM | 3.9 µM | – | – | –
O=C1C(=O)c2cccc([N+](=O)[O-])c2-c2ccc([N+](=O)[O-])cc21 [Example 95, 2,5-Dinitro-phenanthrene-9,10-dione] | – | – | ≥ 30 µM | – | – | – | > 30 µM
O=C(O)c1ccc2c(c1)-c1ccccc1C(=O)C2=O [Example 98, 9,10-Dioxo-9,10-dihydro-phenanthrene-3-carboxylic Acid] | > 30 µM | 1 µM | – | 2.4 µM | – | – | –
CC(C)(C)OC(=O)CNC(=O)c1ccc2c(c1)-c1ccccc1C(=O)C2=O [Example 102, [(9,10-dioxo-9,10-dihydro-phenanthrene-3-carbonyl)-amino]-acetic acid tert-butyl ester] | 0.3 µM | – | 2.5 µM | 3.4 µM | – | – | –
